According to US12528784B2, “Alkynyl-(heteroaryl)-carboxamide HCN1 inhibitors” (Hoffmann-La Roche Inc., priority 2019, dated 2026):

What was measured:
Assay type in all cases: cell-based
HCN1 = molecular target: T1, HCN1 (Homo sapiens, UniProt O60741); assay: HCN1 automated patch clamp current inhibition assay (Ionworks Barracuda); settings: HEK-293 cells stably expressing HCN1; current inhibition during a hyperpolarizing pulse of -100 mV
T1 construct: expressed in transfected cells
T1 sequence (O60741 1-890): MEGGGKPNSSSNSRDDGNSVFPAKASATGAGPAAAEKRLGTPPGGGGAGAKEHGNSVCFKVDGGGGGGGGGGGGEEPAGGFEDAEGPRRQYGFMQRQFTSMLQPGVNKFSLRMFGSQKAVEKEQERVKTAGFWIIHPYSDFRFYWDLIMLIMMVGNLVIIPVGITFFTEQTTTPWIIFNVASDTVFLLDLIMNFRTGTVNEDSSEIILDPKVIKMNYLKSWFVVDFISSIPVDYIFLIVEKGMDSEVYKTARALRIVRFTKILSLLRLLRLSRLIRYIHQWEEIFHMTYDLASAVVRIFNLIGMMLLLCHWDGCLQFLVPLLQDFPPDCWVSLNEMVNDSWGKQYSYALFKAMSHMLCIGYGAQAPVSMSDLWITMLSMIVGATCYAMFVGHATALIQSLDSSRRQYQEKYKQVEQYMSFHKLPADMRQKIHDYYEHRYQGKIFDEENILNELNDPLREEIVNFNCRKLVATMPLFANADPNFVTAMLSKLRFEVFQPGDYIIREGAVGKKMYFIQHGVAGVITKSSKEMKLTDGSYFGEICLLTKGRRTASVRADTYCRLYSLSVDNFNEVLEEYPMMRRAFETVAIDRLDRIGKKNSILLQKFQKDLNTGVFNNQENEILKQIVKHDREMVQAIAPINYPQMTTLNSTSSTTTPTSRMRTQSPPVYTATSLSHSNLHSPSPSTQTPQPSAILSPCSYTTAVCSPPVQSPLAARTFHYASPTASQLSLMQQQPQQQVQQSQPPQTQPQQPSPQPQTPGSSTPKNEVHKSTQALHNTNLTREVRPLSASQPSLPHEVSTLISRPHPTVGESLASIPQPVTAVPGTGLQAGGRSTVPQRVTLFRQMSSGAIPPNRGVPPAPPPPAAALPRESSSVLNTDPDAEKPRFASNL
Experimental: (§1) In vitro, high-throughput cellular electrophysiology was employed to detect voltage- and use-dependence of compounds in single concentration screening and IC50 determination for library and medicinal chemistry profiling compounds in 384 well plates.
(§2) Cell cultures were maintained in DMEM/F12 cell growth media containing FBS and appropriate antibiotics at 37° C., 5% CO2 for a maximum of 20 passages. At a time point of 40-72 hours prior to assay, the expression of HCN protein in the cells is induced by addition of tetracyclin. Cells may be incubated at 27° C. for 2-24 hours of induction. […] Cells were harvested at 80% confluency and resuspended in extracellular buffer and added to wells. A freshly prepared Escin solution was added to intracellular buffer and applied to establish whole cell recording via perforated patch clampling by APC.
(§3) Currents through activated channels were measured directly by APC by employing hyperpolarizing voltage steps. The activation window was increased and stabilized by the addition of cell permeable Br-cAMP. Baselines were established for both use- and voltage-dependence protocols using a −30 mV holding potential and multiple test pulses at −100 mV or by 20 mV steps from −120 to 0 mV, respectively. Test compounds were added after baseline recordings followed by a 10 min incubation, voltage-dependency protocol recording, and use-dependency recording. Data was corrected for baseline and rundown (well based) and normalized for % inhibition (plate based). Five previously reported HCN inhibitors of varying potencies and selectivities and zatebradine were used for run to run and plate to plate quality controls. […] Percent inhibition was analysed at −80, −100, −120 mV of the voltage-dependency protocol and at pulse 0 and 50 of the use-dependency protocols. Selectivity was assessed against HCN2, HCN3, and HCN4 overexpressing cell lines using similar methods. As HCN4 has a slower activation than the other HCN channels, activation was extended to achieve steady state activation.

HCN2 = molecular target: T2, HCN2 (Homo sapiens, UniProt Q9UL51); assay: HCN2 automated patch clamp current inhibition assay (Ionworks Barracuda); settings: HEK-293 cells stably expressing HCN2; current inhibition during a hyperpolarizing pulse of -100 mV
T2 construct: expressed in transfected cells
T2 sequence (Q9UL51 1-889): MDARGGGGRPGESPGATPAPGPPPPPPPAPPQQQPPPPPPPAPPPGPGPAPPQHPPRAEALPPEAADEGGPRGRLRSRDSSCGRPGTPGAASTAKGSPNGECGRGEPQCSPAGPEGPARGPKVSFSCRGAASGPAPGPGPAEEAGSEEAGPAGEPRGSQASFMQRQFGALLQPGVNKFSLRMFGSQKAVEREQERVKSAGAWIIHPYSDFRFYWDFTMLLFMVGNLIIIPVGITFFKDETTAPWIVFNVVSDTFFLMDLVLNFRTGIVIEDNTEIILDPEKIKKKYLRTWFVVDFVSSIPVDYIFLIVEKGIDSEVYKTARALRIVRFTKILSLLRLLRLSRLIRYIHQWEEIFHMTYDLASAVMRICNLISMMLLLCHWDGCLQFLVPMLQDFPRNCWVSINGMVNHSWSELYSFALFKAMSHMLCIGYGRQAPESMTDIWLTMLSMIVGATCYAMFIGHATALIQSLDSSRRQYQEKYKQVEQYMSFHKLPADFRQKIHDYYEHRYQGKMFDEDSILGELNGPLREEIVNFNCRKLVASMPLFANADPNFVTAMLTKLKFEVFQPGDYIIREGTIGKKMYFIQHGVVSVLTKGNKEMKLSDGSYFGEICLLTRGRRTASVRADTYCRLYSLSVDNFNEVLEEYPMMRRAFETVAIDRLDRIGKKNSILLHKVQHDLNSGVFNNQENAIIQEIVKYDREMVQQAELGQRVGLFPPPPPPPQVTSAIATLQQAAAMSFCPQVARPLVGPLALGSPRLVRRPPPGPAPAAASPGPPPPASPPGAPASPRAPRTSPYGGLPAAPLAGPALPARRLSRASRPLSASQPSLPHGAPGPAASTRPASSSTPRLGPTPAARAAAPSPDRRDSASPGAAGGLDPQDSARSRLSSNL
Experimental: as §1, §2, §3

HCN4 = molecular target: T3, HCN4 (Homo sapiens, UniProt Q9Y3Q4); assay: HCN4 automated patch clamp current inhibition assay (Ionworks Barracuda); settings: HEK-293 cells stably expressing HCN4; current inhibition during a hyperpolarizing pulse of -100 mV
T3 construct: expressed in transfected cells
T3 sequence (Q9Y3Q4 1-1203): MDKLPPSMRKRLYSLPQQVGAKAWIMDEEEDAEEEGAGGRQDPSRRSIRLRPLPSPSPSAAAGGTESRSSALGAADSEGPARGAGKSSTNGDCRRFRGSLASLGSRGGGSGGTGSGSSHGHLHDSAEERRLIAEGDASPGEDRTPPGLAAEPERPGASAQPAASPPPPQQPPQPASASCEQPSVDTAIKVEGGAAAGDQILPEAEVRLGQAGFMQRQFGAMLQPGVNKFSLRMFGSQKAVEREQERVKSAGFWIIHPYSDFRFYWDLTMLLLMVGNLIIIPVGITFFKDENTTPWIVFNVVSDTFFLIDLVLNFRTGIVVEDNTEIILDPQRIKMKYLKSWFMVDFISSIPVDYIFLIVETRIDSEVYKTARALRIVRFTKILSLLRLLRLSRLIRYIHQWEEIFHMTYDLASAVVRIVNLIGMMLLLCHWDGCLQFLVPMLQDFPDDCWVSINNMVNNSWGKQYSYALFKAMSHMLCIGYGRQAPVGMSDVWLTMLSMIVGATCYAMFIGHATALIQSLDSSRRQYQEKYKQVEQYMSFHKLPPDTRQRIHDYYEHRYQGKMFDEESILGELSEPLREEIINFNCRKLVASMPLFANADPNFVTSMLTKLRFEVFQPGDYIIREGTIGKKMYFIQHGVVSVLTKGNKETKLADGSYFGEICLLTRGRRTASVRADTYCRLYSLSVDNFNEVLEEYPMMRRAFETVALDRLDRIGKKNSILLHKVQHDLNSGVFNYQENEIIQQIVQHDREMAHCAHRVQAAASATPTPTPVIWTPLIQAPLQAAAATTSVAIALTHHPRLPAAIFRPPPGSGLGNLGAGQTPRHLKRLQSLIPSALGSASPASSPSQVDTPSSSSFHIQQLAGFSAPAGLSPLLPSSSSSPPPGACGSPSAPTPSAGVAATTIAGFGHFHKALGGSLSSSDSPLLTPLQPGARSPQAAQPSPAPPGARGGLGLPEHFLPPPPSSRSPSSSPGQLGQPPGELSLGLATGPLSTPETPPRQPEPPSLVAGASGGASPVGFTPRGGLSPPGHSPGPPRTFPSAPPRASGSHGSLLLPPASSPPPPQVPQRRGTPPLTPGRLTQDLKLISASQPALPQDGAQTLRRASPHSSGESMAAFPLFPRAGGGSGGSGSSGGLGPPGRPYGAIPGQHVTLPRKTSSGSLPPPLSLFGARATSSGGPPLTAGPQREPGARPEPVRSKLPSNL
Experimental: as §1, §2, §3

SMILES	IC50 (HCN1) [µM]	IC50 (HCN2) [µM]	IC50 (HCN4) [µM]
Cc1ccc(-n2c(C(N)=O)nc(C#Cc3cc(Cl)ncc3F)c2C)cn1 [Example 7, 4-((2-Chloro-5-fluoropyridin-4-yl)ethynyl)-5-methyl-1-(6-methylpyridin-3-yl)-1H-imidazole-2-carboxamide]	0.297	> 40	> 40
Cc1ccc(-n2c(C(N)=O)nc(C#Cc3ccc(Cl)cc3)c2C)cn1 [Example 9, 4-[2-(4-Chlorophenyl)ethynyl]-5-methyl-1-(6-methyl-3-pyridyl)imidazole-2-carboxamide]	0.518	> 40	> 40
Cc1ccc(-n2c(C(N)=O)nc(C#Cc3ccnc(C(F)(F)F)c3)c2C)cn1 [Example 11, 5-Methyl-1-(6-methylpyridin-3-yl)-4-((2-(trifluoromethyl)pyridin-4-yl)ethynyl)-1H-imidazole-2-carboxamide]	0.833	> 40	> 40
Cc1ccc(-n2c(C(N)=O)nc(C#Cc3ccnc(F)c3)c2C)cn1 [Example 12, 4-[2-(2-Fluoro-4-pyridyl)ethynyl]-5-methyl-1-(6-methyl-3-pyridyl)imidazole-2-carboxamide]	1.01	> 40	> 40
Cc1ccc(-n2c(C(N)=O)nc(C#Cc3ccnc(Cl)n3)c2C)cn1 [Example 15, 4-((2-Chloropyrimidin-4-yl)ethynyl)-5-methyl-1-(6-methylpyridin-3-yl)-1H-imidazole-2-carboxamide]	2.39	> 40	> 40
Cc1ccc(-n2c(C(N)=O)nc(C#Cc3ccncc3F)c2C)cn1 [Example 16, 4-((3-Fluoropyridin-4-yl)ethynyl)-5-methyl-1-(6-methylpyridin-3-yl)-1H-imidazole-2-carboxamide]	2.4	> 40	> 40
Cc1ccc(-n2c(C(N)=O)nc(C#Cc3cncc(Cl)c3)c2C)cn1 [Example 17, 4-[2-(5-Chloro-3-pyridyl)ethynyl]-5-methyl-1-(6-methyl-3-pyridyl)imidazole-2-carboxamide]	3.02	> 40	> 40
Cc1ccc(-n2c(C(N)=O)nc(C#Cc3cc(Cl)ncn3)c2C)cn1 [Example 19, 4-((6-Chloropyrimidin-4-yl)ethynyl)-5-methyl-1-(6-methylpyridin-3-yl)-1H-imidazole-2-carboxamide]	6.47	–	> 40
Cc1ccc(-n2c(C(N)=O)nc(C#Cc3cccnc3)c2C)cn1 [Example 20, 5-Methyl-1-(6-methyl-3-pyridyl)-4-[2-(3-pyridyl)ethynyl]imidazole-2-carboxamide]	8.59	> 40	> 40
Cc1ccc(-n2c(C(N)=O)nc(C#Cc3ccnc(C)c3)c2C)cn1 [Example 22, 5-Methyl-1-(6-methylpyridin-3-yl)-4-((2-methylpyridin-4-yl)ethynyl)-1H-imidazole-2-carboxamide]	6.03	> 40	> 40
Cc1ccc(-n2c(C(N)=O)nc(C#Cc3ccnc(Cl)c3C)c2C)nn1 [Example 24, 4-[2-(2-Chloro-3-methyl-4-pyridyl)ethynyl]-5-methyl-1-(6-methylpyridazin-3-yl)imidazole-2-carboxamide]	0.15	> 40	> 40
Cc1c(Cl)cccc1C#Cc1nc(C(N)=O)n(-c2cccnc2)c1C [Example 30, 4-[2-(3-Chloro-2-methyl-phenyl)ethynyl]-5-methyl-1-(3-pyridyl)imidazole-2-carboxamide]	0.087	–	> 40
Cc1c(C#Cc2ccnc(Cl)c2)nc(C(N)=O)n1-c1cccc(Cl)c1 [Example 40, 1-(3-Chlorophenyl)-4-((2-chloropyridin-4-yl)ethynyl)-5-methyl-1H-imidazole-2-carboxamide]	3.16	> 40	> 40
